Here are results for 1 compound from US20260034119A1, “5-METHOXY-N,N-[…][…], THEIR […], AND METHODS FOR TREATMENT OF NEUROLOGICAL, […], AND SUBSTANCE USE DISORDERS” (priority 2023, published 2026).

A word on the EC50: it is the concentration at which the effect is half-maximal.

Where two headings read alike, the source gives them in different places.

The subject of data set [1] is all human 5-HT receptor subtypes. Put plainly: PRESTO-TANGO arrestin-recruitment assay. The note with it: compared with 5-HT1A. The class given is cell-based. The method, then:
The receptor contructs were obtained from Addgene and contain the TEV cleavage site and the tetracycline transactivator (tTA) fused to the C terminus of the receptor. For the assay, constructs were transfected into HTLA cells (kindly provided by Dr. Bryan Roth, University of North Carolina), which express TEV fused-β-Arrestin2 and a tetracycline transactivator-driven luciferase and are necessary for this assay. A day before the assay cells were cultured in DMEM supplemented with 1% dFBS and transfected with 8 μg of DNA per 7 million cells in a 10 cm plate using PEI transfection. The next day, 20,000 cells in 40 μl were then plated in poly-L-lysine-coated clear-bottom 384-well plates in the same media and incubated for at least 5 hr before stimulation. […] After 16-24 hr overnight incubation, media and drug solutions were aspirated and 20 μl per well of BrightGlo reagent (purchased from Promega, after 1:20 dilution) was added per well. The plate was incubated for 20 min at room temperature in the dark before being counted using a MicroBeta TriLux liquid scintillation counter.

Data set [2] concerns the target 5-HT1A (Homo sapiens, UniProt P08908). Kind of data set: BRET signaling assay: 5-HT1A-mediated activation of heterotrimeric Gi1 (TRUPATH, HEK293-T).
A short description of data set [3]: Human plasma protein binding. The note with it: for fraction unbound: human, plasma. In kind it is in vitro ADME.

Sequence of 5-HT1A (P08908 whole entry): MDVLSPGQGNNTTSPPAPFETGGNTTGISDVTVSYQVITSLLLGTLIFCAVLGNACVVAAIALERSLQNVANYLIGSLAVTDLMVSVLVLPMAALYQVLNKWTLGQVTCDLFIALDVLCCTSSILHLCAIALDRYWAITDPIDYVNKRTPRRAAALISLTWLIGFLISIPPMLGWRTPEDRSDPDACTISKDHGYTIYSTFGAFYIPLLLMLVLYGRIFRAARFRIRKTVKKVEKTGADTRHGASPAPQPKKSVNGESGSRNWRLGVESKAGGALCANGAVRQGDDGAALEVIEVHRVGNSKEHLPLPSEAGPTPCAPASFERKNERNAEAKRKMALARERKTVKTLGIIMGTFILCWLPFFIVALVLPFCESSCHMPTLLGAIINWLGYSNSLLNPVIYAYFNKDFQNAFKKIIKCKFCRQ

`COc1ccc2[nH]cc(CCN3CCCC3)c2c1F` [4-F, 5-MeO-PyrT, 4-Fluoro, 5-methoxypyrrolidinyl-tryptamine]: the “activity at all other G protein-coupled serotonin receptors” value in data set [1] is listed as “substantially lower activity”. In addition, the “Emax, 5-HT1A-mediated activation of Gi1 (BRET)” value in data set [2] is on record as 102.8 % of 5-HT. In addition, the pEC50 result in data set [2] (Gi1 BRET, 5-HT1A WT) was “(9.43,”. In data set [2] (read-out: Gi BRET EC50), the EC50 came out at 0.37 nM. The compound also came in with a recovery in data set [3] of 81.8%. In addition, the “% Compound remaining at 4 h” value in data set [3] (4 h) was determined as 97.9%. In addition, the fraction unbound in data set [3] (read-out: % Bound Mean (converted)) is 0.74; in data set [3] (read-out: % Unbound), 0.74; in data set [3] (read-out: fu), 0.74; in data set [3] (replicate R1, read-out: % Bound R1 (converted)) it was 0.778; in data set [3] (replicate R2, read-out: % Bound R2 (converted)), 0.702.
